In patent publication US12540141B2, “Spiropyrrolidine derived antiviral agents” (priority 2020, dated 2026) one finds IC50 data, which are given here for 52 molecules.

The test addresses SARS-CoV-2 3CL-protease (Severe acute respiratory syndrome coronavirus 2, UniProt P0DTD1). In words: SARS-CoV-2 3C-Like (3CL) Protease Fluorescence Assay (FRET). Particulars: SARS-CoV-2 3CL-protease 10 nM, 30 min preincubation at RT, substrate 40 μM. Format: biochemical.
As to `[2H]C([2H])([2H])N(C(=O)c1cn(-c2ccc(Cl)cc2)nn1)[C@@H](CC(C)(C)C)C(=O)N1C[C@]2(C[C@H]1C#N)C(=O)Nc1ccccc12` [Example 377], the IC50 is less than 100 nM. On to `CCCC[C@@H](C(=O)N1C[C@]2(C[C@H]1C#N)C(=O)Nc1ccccc12)N(C)C(=O)c1cc2c(F)cc(F)cc2[nH]1` [Example 384], for which the IC50 was less than 100 nM.

Turning to `CC(C)C[C@@H](C(=O)N1C[C@]2(C[C@H]1C#N)C(=O)Nc1ccccc12)N(C)C(=O)c1ccc2nccc(Br)c2c1` [Example 274], the IC50 is less than 100 nM. In the case of `CC(=O)c1ccc2c(c1)[C@@]1(C[C@@H](C#N)N(C(=O)[C@H](CC(C)C)N(C)C(=O)c3cc4c(F)cc(F)cc4[nH]3)C1)C(=O)N2` [Example 499], the IC50 was less than 100 nM. Molecule `CC(C)C[C@@H](C(=O)N1C[C@]2(C[C@H]1C#N)C(=O)Nc1ccc(Cl)cc12)N(C)C(=O)c1cc2cccnc2[nH]1` [Example 468] gave an IC50 of less than 100 nM. As for `CC(C)C[C@@H](C(=O)N1C[C@]2(C[C@H]1C#N)C(=O)Nc1ccc(Br)cc12)N(C)C(=O)c1cc2c(F)cc(F)cc2[nH]1` [Example 508], the figure is less than 100 nM; as for `CN(C(=O)c1cc2cnccc2[nH]1)[C@@H](CC1CC1)C(=O)N1C[C@]2(C[C@H]1C#N)C(=O)Nc1ccc(Cl)cc12` [Example 457], less than 100 nM; as for `CC(C)C[C@@H](C(=O)N1C[C@]2(C[C@H]1C#N)C(=O)Nc1ccccc12)N(C)C(=O)c1nc2cc(Cl)c(Cl)cc2[nH]1` [Example 251], 100 to 1000 nM.

Consider `CC(C)C[C@@H](C(=O)N1C[C@]2(C[C@H]1C#N)C(=O)Nc1ccccc12)N(C)C(=O)c1cnc2cccnc2c1` [Example 302], for which the IC50 was in the range of 100 to 1000 nM. The same measure for `CC(C)C[C@@H](C(=O)N1C[C@]2(C[C@H]1C(=O)CCl)C(=O)Nc1ccccc12)N(C)C(=O)c1cc2c(F)cc(F)c(F)c2[nH]1` [Example 159]: greater than 1000 nM; for `CC(C)C[C@@H](C(=O)N1C[C@]2(C[C@H]1C#N)C(=O)Nc1ccc(-c3ccsc3)cc12)N(C)C(=O)c1cc2c(F)cc(F)cc2[nH]1` [Example 513]: less than 100 nM; for `N#C[C@@H]1C[C@@]2(CN1C(=O)[C@H](CC1CC1)NC(=O)c1c(Cl)cccc1Cl)C(=O)Nc1ccc(F)cc12` [Example 522]: 100 to 1000 nM. Take `CC(C)C[C@@H](C(=O)N1C[C@]2(C[C@H]1C#N)C(=O)Nc1ccccc12)N(C)C(=O)c1cc(Cl)cc(Cl)c1` [Example 172]: the IC50 was less than 100 nM. `[2H]C([2H])([2H])N(C(=O)c1cnn(CC(F)(F)F)c1)[C@@H](CC1CC1)C(=O)N1C[C@]2(C[C@H]1C#N)C(=O)Nc1ccccc12` [Example 395] gave an IC50 of less than 100 nM. Molecule `CC(C)(C)C[C@H](NC(=O)NC1CCCCC1)C(=O)N1C[C@]2(C[C@H]1C#N)C(=O)Nc1ccccc12` [Example 440] came in with an IC50 of less than 100 nM.

Take `CC(C)C[C@@H](C(=O)N1C[C@]2(C[C@H]1C#N)C(=O)Nc1ccccc12)N(C)C(=O)c1ccc(-c2ccccc2)cc1` [Example 277]: the IC50 lay within 100 to 1000 nM.

`CC(C)C[C@@H](C(=O)N1C[C@]2(C[C@H]1C#N)C(=O)Nc1ccccc12)N(C)C(=O)c1ccc2ccccc2n1` [Example 211] registered an IC50 of 100 to 1000 nM. The same measure for `CN(C(=O)c1cc2c(F)cc(F)c(F)c2[nH]1)[C@@H](CC(C)(C)F)C(=O)N1C[C@]2(C[C@H]1C#N)C(=O)Nc1cccnc12` [Example 552]: less than 100 nM; for `CC(C)C[C@@H](C(=O)N1C[C@]2(C[C@H]1C#N)C(=O)Nc1ccccc12)N(C)C(=O)c1cnc2ccccc2c1` [Example 213]: less than 100 nM.

On to `CN(C(=O)c1cc2c(F)cc(F)cc2[nH]1)[C@@H](COC(C)(C)C)C(=O)N1C[C@]2(C[C@H]1C#N)C(=O)Nc1ccccc12` [Example 371], for which the 50% inhibitory concentration (IC50) was less than 100 nM. As to `COc1ccc(CN(C(=O)C(F)(F)F)[C@@H](CC(C)C)C(=O)N2C[C@]3(C[C@H]2C#N)C(=O)Nc2ccccc23)cc1` [Example 429], the IC50 is greater than 1000 nM. The same measure for `CC(C)C[C@@H](C(=O)N1C[C@]2(C[C@H]1C#N)C(=O)Nc1ccccc12)N(C)C(=O)c1cnc2ccccc2c1O` [Example 260]: 100 to 1000 nM; for `Cc1cc2cc(C(=O)N(C)[C@@H](CC(C)C)C(=O)N3C[C@]4(C[C@H]3C#N)C(=O)Nc3ccccc34)cc(OC3CC3)c2nc1C` [Example 323]: less than 100 nM. As for `[2H]C([2H])([2H])N(C(=O)c1cc(OC(F)F)c2ncccc2c1)[C@@H](CC(C)(C)C)C(=O)N1C[C@]2(C[C@H]1C#N)C(=O)Nc1ccccc12` [Example 383], the figure is less than 100 nM; as for `CN(C(=O)[C@H](O)c1ccccc1F)[C@@H](CC1CC1)C(=O)N1C[C@]2(C[C@H]1C#N)C(=O)Nc1ccccc12` [Example 425], less than 100 nM. Turning to `CC(C)C[C@@H](C(=O)N1C[C@]2(C[C@H]1C#N)C(=O)Nc1ccccc12)N(C)C(=O)c1ccnc2ccc(F)cc12` [Example 305], the IC50 is less than 100 nM. The same measure for `CCN(CC)CCC(=O)N(C)[C@@H](CC(C)(C)F)C(=O)N1C[C@]2(C[C@H]1C#N)C(=O)Nc1ccccc12` [Example 544]: less than 100 nM. The same measure for `CC(C)C[C@@H](C(=O)N1C[C@]2(C[C@H]1C#N)C(=O)Nc1ccccc12)N(C)C(=O)c1cc2nccnc2[nH]1` [Example 490]: less than 100 nM; for `CC(C)C[C@@H](C(=O)N1C[C@]2(C[C@H]1C(O)S(=O)(=O)O)C(=O)Nc1ccccc12)N(C)C(=O)c1cc2c(F)cc(F)c(F)c2[nH]1` (stereo partly shown) [Example 154]: less than 100 nM. `CC(C)C[C@@H](C(=O)N1C[C@]2(C[C@H]1C#N)C(=O)Nc1ccccc12)N(C)C(=O)c1ccc(OC(F)(F)F)c(F)c1` [Example 179] gave an IC50 of less than 100 nM. Molecule `[2H]C([2H])([2H])N(C(=O)c1cc2c(F)cc(F)cc2[nH]1)[C@@H](CC(C)(C)F)C(=O)N1C[C@]2(C[C@H]1C#N)C(=O)Nc1cc(C(F)(F)F)ccc12` [Example 472, N—((S)-1-((3R,5′S)-5′-cyano-2-oxo-6-(trifluoromethyl)spiro[indoline-3,3′-pyrrolidin]-1′-yl)-4-fluoro-4-methyl-1-oxopentan-2-yl)-4,6-difluoro-N-(methyl-d3)-1H-indole-2-carboxamide] yielded an IC50 of less than 100 nM. As for `Cc1cccc2c1[C@@]1(C[C@@H](C#N)N(C(=O)[C@H](CC(C)C)NC(=O)c3cc4c(F)cccc4[nH]3)C1)C(=O)N2` [Example 529], the figure is 100 to 1000 nM; as for `CC(C)C[C@@H](C(=O)N1C[C@]2(C[C@H]1C#N)C(=O)Nc1ccccc12)N(C)C(=O)[C@@H](c1cnn(C)c1)C(C)C` [Example 348], less than 100 nM. The same measure for `CC(C)C[C@@H](C(=O)N1C[C@]2(C[C@H]1C#N)C(=O)Nc1ccccc12)N(C)C(=O)c1cc2cccnc2cc1F` [Example 275]: less than 100 nM; for `CC(C)(C)C[C@H](NC(=O)c1cn(C2CCC2)nn1)C(=O)N1C[C@]2(C[C@H]1C#N)C(=O)Nc1ccccc12` [Example 148]: less than 100 nM; for `CC(C)C[C@@H](C(=O)N1C[C@]2(C[C@H]1C(=O)O)C(=O)Nc1ccc(Cl)cc12)N(C)C(=O)c1cc2c(F)cc(F)cc2[nH]1` [Example 497, (3R,5′S)-5-chloro-1′-(N-(4,6-difluoro-1H-indole-2-carbonyl)-N-methyl-L-leucyl)-2-oxospiro[indoline-3,3′-pyrrolidine]-5′-carboxylic acid]: greater than 1000 nM. As for `CN(C(=O)c1cnn(C(C)(C)C)c1Cl)[C@@H](CC1CC1)C(=O)N1C[C@]2(C[C@H]1C#N)C(=O)Nc1ccccc12` [Example 409], the figure is less than 100 nM; as for `CC(C)C[C@@H](C(=O)N1C[C@]2(C[C@H]1C#N)C(=O)Nc1ccc(-c3cn(-c4ccccn4)nn3)cc12)N(C)C(=O)c1cc2c(F)cc(F)cc2[nH]1` [Example 507], less than 100 nM. Molecule `CC(C)C[C@@H](C(=O)N1C[C@]2(C[C@H]1C#N)C(=O)Nc1ccccc12)N(C)C(=O)c1cc(Cl)c2nn(C3CC3)cc2c1` [Example 316] yielded an IC50 of less than 100 nM. The molecule `CCCC[C@H](NC(=O)[C@@H](O)c1ccc(F)cc1)C(=O)N1C[C@]2(C[C@H]1C#N)C(=O)Nc1ccccc12` [Example 418] returned an IC50 of less than 100 nM. The same measure for `COc1cc(F)c2cc(C(=O)N(C)[C@@H](CC(C)C)C(=O)N3C[C@]4(C[C@H]3C#N)C(=O)Nc3ccccc34)[nH]c2c1F` [Example 292]: less than 100 nM. For the molecule `CC(C)C[C@@H](C(=O)N1C[C@]2(C[C@H]1C#N)C(=O)Nc1ccccc12)N(C)C(=O)c1cc(Cl)c2ncc(C3CC3)cc2c1` [Example 239], the concentration for half-maximal inhibition (IC50) fell in the range of 100 to 1000 nM.

In turn, `CNCCC(=O)N(C)[C@@H](CC(C)(C)F)C(=O)N1C[C@]2(C[C@H]1C#N)C(=O)Nc1ccccc12` [Example 543] displayed an IC50 of less than 100 nM. The same measure for `CC(C)C[C@@H](C(=O)N1C[C@]2(C[C@H]1C#N)C(=O)Nc1ccccc12)N(C)C(=O)c1ccnc2ccccc12` [Example 294]: less than 100 nM; for `CC(C)C[C@@H](C(=O)N1C[C@]2(C[C@H]1C#N)C(=O)Nc1ccccc12)N(C)C(=O)c1cc2ccccc2s1` [Example 207]: less than 100 nM. Regarding `CC(C)C[C@@H](C(=O)N1C[C@]2(C[C@H]1C#N)C(=O)Nc1ccccc12)N(C)C(=O)c1cc(OC2CC2)c2ncc(C3CC3)cc2c1` [Example 324], the IC50 is 100 to 1000 nM. The same measure for `CC(C)C[C@@H](C(=O)N1C[C@]2(C[C@H]1C#N)C(=O)Nc1ccccc12)N(C)C(=O)c1ccnc2cccc(F)c12` [Example 306]: less than 100 nM; for `CC(C)C[C@@H](C(=O)N1C[C@]2(C[C@H]1C#N)C(=O)Nc1ccccc12)N(C)C(=O)c1ccc2nc(N)sc2c1` [Example 225]: greater than 1000 nM; for `N#C[C@@H]1C[C@@]2(CN1C(=O)[C@H](Cc1ccc(F)cc1)NC(=O)c1cc3c(F)cc(F)cc3[nH]1)C(=O)Nc1ccc(Cl)cc12` [Example 452]: less than 100 nM. As for `CC(C)N(C(=O)OC(C)(C)C)[C@@H](Cc1ccccc1)C(=O)N1C[C@]2(C[C@H]1C#N)C(=O)Nc1ccccc12` [Example 161], the figure is greater than 1000 nM; as for `CC(C)C[C@@H](C(=O)N1C[C@]2(C[C@H]1C#N)C(=O)Nc1ccccc12)N(C)C(=O)c1ccc2ccsc2c1` [Example 246], 100 to 1000 nM.

For the molecule `CC(C)C[C@@H](C(=O)N1C[C@]2(C[C@H]1C#N)C(=O)Nc1ccccc12)N(C)C(=O)c1nnc(C2CC2)o1` [Example 354], the concentration for half-maximal inhibition (IC50) is less than 100 nM.
